Experimental data from US20050163835A1, “Pharmaceutical formulation of iressa comprising a water-soluble cellulose derivative” (AstraZeneca AB, priority 2002, published 2005).

Legend:
[1] = pH-dependent aqueous solubility of the Agent; assay type: physicochemical; conditions: free-base form
[2] = pH shift dissolution (precipitation) test; assay type: physicochemical
Description: The formulations described in the examples above were dissoluted in media comprising 500 ml 0.07N HCl (approximately pH 1.5) and sodium chloride (0.2% w/v) for one hour at 37° C. (paddle speed 100 rpm). A 5 ml sample was taken at 60 minutes and the media replaced.
10 ml of a 2.5M KH2PO4/16.72% (w/v) NaOH solution was then added to shift the pH to 6.5. 5ml samples were then removed with a plastic syringe at 2, 5, 15, 30, 45 and 60 minutes after pH adjustment and media replaced after every sampling time point. Each sample was centrifuged (14,000 rpm) at ambient temperature for 15 minutes and then analysed by HPLC using the following conditions:

COc1cc2ncnc(Nc3ccc(F)c(Cl)c3)c2cc1OCCCN1CCOCC1 [Agent, 4-(3′-chloro-4′-fluoroanilino)-7-methoxy-6-(3-morpholinopropoxy)quinazoline]
solubility in aqueous media ([1]; above pH 7): practically insoluble | aqueous solvent required to dissolve 1 g of Agent ([1]; pH 6): ≥ 10000 mL | % Agent in solution at 2 mins after pH adjustment to pH 6.5 ([2]; 2 mins after shift from pH 1.5 to pH 6.5, HPLC of centrifuged sample): 6.5% | % Agent in solution at 5 mins after pH adjustment to pH 6.5 ([2]; 5 mins after shift from pH 1.5 to pH 6.5, HPLC of centrifuged sample): 6.9% | % Agent in solution after 60 mins in acidic media (~pH 1.5) ([2]; 500 ml 0.07N HCl, 0.2% w/v NaCl, 37° C., before pH shift, HPLC): 102.6%
